# Test results from patent US10669545B2, “Tumor cell malignant transformation suppressor and anti-tumor agent” (JAPAN SCIENCE AND TECHNOLOGY AGENCY, priority 2015, dated 2020).
# How the values were obtained:
# Assay type in all cases: cell-based, human
# A375 cells = assay: Annexin V-positive cells, A375 cells; conditions: UO126 10 μM or oxaliplatin 20 μM for 48 hours, compared with PLX4032 case
# Description: The percentage of Annexin V-positive cells was measured as follows. First, FITC labeled Annexin V (manufactured by MBL, Nagoya, Japan) and Hoechst33342 were added to each cell and incubated for 40 minutes. Next, a stained state of the incubated cells was analyzed by using DAPI filter and FITC filter of an imaging cytometer, “In Cell Analyzer 2000” (manufactured by GE healthcare). Percentage (%) of […] was determined by In Cell Analyzer Workstation 3.7 (manufactured by GE healthcare). The statistical difference was determined by the Tukey's multiple comparisons of means test (**: P<0.01, *: P<0.05).
# Next, the influence of knockdown of endogenous ZIC5, and PDGFD and ITGA6, which are downstream factors, on a decrease in cell proliferation by PLX4032 and induction of apoptosis was examined. […] Next, the treated cells were added to FITC labeled Annexin V (manufactured by MBL, Nagoya, Japan) and Hoechst33342 and incubated for 40 minutes. […]
# (§1) The statistical difference was determined by the Tukey's multiple comparisons of means test (**: P<0.01, *: P<0.05).
# total STAT3 (STAT3) = assay: Western blotting of total STAT3; conditions: A375 cells; 24 hours; WP1066 0-4 μM, IL-6 0-20 ng/mL
# Description: (§2) A375 cells were treated in a medium in which a concentration of the Stat3 inhibitor, WP1066 (manufactured by Santa Cruz, Dallas, Tex.) was 0, 1, 1.5, 2, 2.5, 3, or 4 μM for 24 hours, and then western blotting was performed to assess the level of ZIC5, pro-PDGFD, pSTAT3, STAT3, and GAPDH. Western blotting was performed in the same manner as above except that anti-ZIC5 antibody (manufactured by Aviva systems biology), anti-PDGFD antibody (manufactured by Santa Cruz), anti-pSTAT3 antibody (manufactured by Cell Signaling), STAT3 antibody (manufactured by BD Biosciences), and anti-GAPDH antibody (manufactured by Cell Signaling) were used.
# as §2, with “Interleukin-6 (IL-6)” for “the Stat3 inhibitor, WP1066”, “Novus Biologicals)” for “Santa Cruz, Dallas, Tex.)”, “10,” for “1, 1.5, 2, 2.5, 3,”, “20 ng/mL” for “4 μM”, “anti-pERK” for “anti-PDGFD”, “Cell Signaling),” for “Santa Cruz),”
# ZIC5 = assay: Western blotting of ZIC5; conditions: A375 cells; 24 hours; FAK inhibitor I 0-5 μM, WP1066 0-4 μM, IL-6 0-20 ng/mL
# Description: The expression level of PDGFD gene and Zic5 gene in the obtained cells was measured by western blotting using GAPDH as an internal control. Western blotting was performed according to a method of Kanemaru et al. (refer to NPL 13) using anti-ZIC5 antibody (manufactured by Aviva systems biology), anti-PDGFD antibody (manufactured by Santa Cruz), and anti-GAPDH antibody (manufactured by Cell Signaling).
# (§3) A375 cells were treated in a medium in which a concentration of a FAK inhibitor I (manufactured by Calbiochem) was 0, 1, 2.5, or 5 μM for 24 hours, and the level of ZIC5, pro-PDGFD, pERK, and β-actin was measured by western blotting. Western blotting was performed in the same manner as above except that anti-ZIC5 antibody (manufactured by Aviva systems biology), anti-PDGFD antibody (manufactured by Santa Cruz), anti-pERK antibody (manufactured by Cell Signaling), and anti-β-actin antibody (manufactured by Sigma) were used.
# A375 cells were treated in a medium in which a concentration of the Stat3 inhibitor, WP1066 (manufactured by Santa Cruz, Dallas, Tex.) was 0, 1, 1.5, 2, 2.5, 3, or 4 μM for 24 hours, and then western blotting was performed to assess the level of ZIC5, pro-PDGFD, pSTAT3, STAT3, and GAPDH. […]
# [1] = system: phosphorylated Stat3 (pStat3); assay: Western blotting of phosphorylated Stat3; conditions: A375 cells; 24 hours; WP1066 0-4 μM, IL-6 0-20 ng/mL
# Description: as §2
# as §2, with “Interleukin-6 (IL-6)” for “the Stat3 inhibitor, WP1066”, “Novus Biologicals)” for “Santa Cruz, Dallas, Tex.)”, “10,” for “1, 1.5, 2, 2.5, 3,”, “20 ng/mL” for “4 μM”, “anti-pERK” for “anti-PDGFD”, “Cell Signaling),” for “Santa Cruz),”
# pro-PDGFD = assay: Western blotting of pro-PDGFD; conditions: A375 cells; 24 hours; FAK inhibitor I 0-5 μM, WP1066 0-4 μM
# Excerpt: Because phosphorylation of focal adhesion kinase (FAK), which is activated at Focal adhesion, has been associated with melanoma malignancy (refer to NPL 19), FAK change by ZIC5 was examined. Furthermore, focusing on Integrin, alpha 6 (ITGA6) and platelet-derived growth factor D (PDGFD) among the Focal adhesion-related genes in the altered genes by Zic5 knockdown, change in cells was examined. Specifically, a level of phosphorylated FAK (pFAK), total FAK (FAK), ITGA6, pro-PDGFD, and β-actin in A375 cells transfected with siZIC5 or siNeg was assessed by western blotting. Western blotting was performed in the same manner as above except that anti-pFAK antibody (manufactured by Signalway Antibody), anti-FAK antibody (manufactured by Acris), anti-β-actin antibody (manufactured by Sigma), anti-ITGA6 antibody (manufactured by GeneTex), and anti-PDGFD antibody (manufactured by Santa Cruz) were used.
# The expression level of PDGFD gene and Zic5 gene in the obtained cells was measured by western blotting using GAPDH as an internal control. […]
# A375 cells were treated in a medium in which a concentration of a FAK inhibitor I (manufactured by Calbiochem) was 0, 1, 2.5, or 5 μM for 24 hours, and the level of ZIC5, pro-PDGFD, pERK, and β-actin was measured by western blotting. […]
# [2] = system: stably Zic5 gene-expressed line (SK-MEL-28 cells); assay: Annexin V-positive cells, stably Zic5 gene-expressed line; conditions: WP1066 10 μM for 24 hours; not shown
# Description: PLX4032 was dissolved in DMSO to be used as a solution, and a line added to an equal amount of DMSO (DMSO treatment) was used as a control. The result of a relative cell number (n=3) in which the number of cells of the cells in which the stably Flag-expressed line was treated with PLX4032 (in the drawing, “+” on the “PLX4032” section, the same applies to the following examples), or the cells treated with DMSO (in the drawing, “−” on the “PLX4032” section, the same applies to the following examples) was set to 1 is shown in FIG. 30. The statistical difference was determined by the Tukey's multiple comparisons of means test (**: P<0.01, *: P<0.05). […]
# The percentage of Annexin V-positive cells was measured as follows. […] Next, a stained state of the incubated cells was analyzed by using DAPI filter and FITC filter of an imaging cytometer, “In Cell Analyzer 2000” (manufactured by GE healthcare). Percentage (%) of […] was determined by In Cell Analyzer Workstation 3.7 (manufactured by GE healthcare). The statistical difference was determined by the Tukey's multiple comparisons of means test (**: P<0.01, *: P<0.05).
# as §1
# [3] = system: stably Zic5 gene-expressed line (SK-MEL-28 cells); assay: Transwell Migration Assay, stably Zic5 gene-expressed line; conditions: treated or non-treated with ROCK inhibitor
# Description: Specifically, the stably Zic5 gene-expressed line and the stably Flag-expressed line were seeded in a 24-well plate into which an insert with 8-μm sized pores (manufactured by BD Biosciences) was put and were cultured in RPMI 1640 medium containing 10% FBS, and then the number of migrated cells was counted.
# The influence of suppressing MLC2 phosphorylation on migration ability of cells was analyzed. Specifically, Transwell Migration Assay was performed in the same manner as above with the stably Zic5 gene-expressed line and the stably Flag-expressed line in a state of being treated or non-treated with a ROCK inhibitor (Y27632), and then the number of migrated cells was counted.
# The number of migrated cells was normalized to a total number of viable cells. A relative cell number (n=3) in which the number of migrated cells transfected with siNeg#1 of each cell was set to 1 is shown in FIG. 29. The statistical difference was determined by the Tukey's multiple comparisons of means test (**: P<0.01, *: P<0.05).
# [4] = system: phosphorylated MLC2 (ppMLC2); assay: Western blotting of phosphorylated MLC2; conditions: stably Zic5 gene-expressed line treated with ROCK inhibitor; not shown
# Description: Myosin light chain 2 (MLC2) is known as an important factor for enhancing melanoma motility. It is known that MLC2 is activated through phosphorylation and enhances cell motility by enhancing actomyosin contraction (refer to NPLs 14 and 15). A protein level of phosphorylated MLC2 (ppMLC2), MLC2, and GAPDH of each cell was measured by western blotting. Western blotting was performed according to a method of Kanemaru et al. (refer to NPL 13) using anti-ppMLC2 antibody, anti-MLC2 antibody, and anti-GAPDH antibody (all manufactured by Cell Signaling).
# Motility of melanoma cells in a case of siRNA-mediated knockdown of endogenous Zic5 gene was examined by performing Transwell Migration Assay. Specifically, SK-MEL-28 cells and A375 cells, which are melanoma cell lines, were transfected with siZIC5#1, siZIC5#2, siNeg#1, or siNeg#2 described in Table 2 in the same manner as Example 1. In the same manner as above, Transwell Migration Assay was performed with the cells transfected with each siRNA, and then the number of migrated cells was counted. […] The protein level of ppMLC2, MLC2, and GAPDH in the cells in which SK-MEL-28 cells were transfected with siRNA was measured by western blotting. The result of western blotting with SK-MEL-28 cells is shown at the bottom of FIG. 9.
# The protein level of ppMLC2, MLC2, and GAPDH in each cell was measured by western blotting in the same manner as above.
# [5] = system: phosphorylated ERK1/2 (Thr202/204) (pERK); assay: Western blotting of phosphorylated ERK1/2; conditions: A375 cells; 24 hours; FAK inhibitor I 0-5 μM, IL-6 0-20 ng/mL
# Description: Western blotting was performed in the same manner as above except that anti-pAKT antibody (manufactured by Cell Signaling), anti-AKT antibody (manufactured by Cell Signaling), anti-pERK antibody (manufactured by Cell Signaling), anti-ERK antibody (manufactured by Cell Signaling), and anti-β-actin antibody (manufactured by Sigma) were used.
# vemR-1 to 3 cells and HT144 cells were treated with DMSO or PLX4032 solution (which was dissolved in DMSO to become 5 μM) for 48 hours, and the level of pAKT, AKT, pERK, ERK, and β-actin of these cells was assessed by western blotting in the same manner as Example 8.
# as §3
# A375 cells were treated in a medium in which a concentration of Interleukin-6 (IL-6) (manufactured by Novus Biologicals) was 0, 10, or 20 ng/mL for 24 hours, and then western blotting was performed to assess the level of ZIC5, pro-PDGFD, pSTAT3, STAT3, and GAPDH. […]
Compound,"percentage of Annexin V-positive cells, drug treatment of siZIC5- vs siNeg-transfected cells (A375 cells)",level of STAT3 (total STAT3 (STAT3)),expression level of ZIC5 (ZIC5),expression level of pSTAT3 [1],further results
N#CC(=C(/N)Sc1ccccc1N)/C(C#N)=C(/N)Sc1ccccc1N [UO126],the same results were obtained,–,–,–,–
"C[C@H](NC(=O)/C(C#N)=C/c1cccc(Br)n1)c1ccccc1 [WP1066, reference compound]",–,not changed,decreased in accordance with a concentration of the Stat3 inhibitor,decreased in accordance with a concentration of the Stat3 inhibitor,expression level of pro-PDGFD (pro-PDGFD): decreased in accordance with a concentration of the Stat3 inhibitor; suppression of apoptosis by Zic5 [2]: completely suppressed
"C[C@@H](N)[C@H]1CC[C@H](C(=O)Nc2ccncc2)CC1 [Y27632, reference compound]",–,–,–,–,increase of migrated cells by Zic5 gene overexpression [3]: partially suppressed; band of ppMLC2 [4]: hardly detected
O=C1[O][Pt]2([NH][C@@H]3CCCC[C@H]3[NH]2)[O]C1=O [oxaliplatin],the same results were obtained,–,–,–,–
IL-6: Interleukin-6 (manufactured by Novus Biologicals),–,not changed,increased in accordance with a concentration of the IL-6,increased in accordance with a concentration of the IL-6,level of pERK [5]: not changed
